Results taken from the NIST ThermoML archive (doi:10.1021/je900218z).
“And” between values parts separate entries of the source, which are not always exact repeats. Equal entries are not always repeated. Numbers after ± are expanded uncertainties.

Experiment: mn = molality of the nth substance listed, in mol/kg
Conditions: 298.15 K, 101 kPa, Liquid

O=S(=O)([O-])[O-].[Na+].[Na+] [sodium sulfate] + O
Conditions	mass density
m1 = 0.2	1021.93 ± 0.32 kg/m3
m1 = 0.4999	1057.3 ± 0.4 kg/m3 and 1057.32 ± 0.4 kg/m3 and 1057.31 ± 0.4 kg/m3
m1 = 0.6999	1079.92 ± 0.46 kg/m3 and 1079.94 ± 0.46 kg/m3 and 1079.93 ± 0.46 kg/m3
m1 = 0.9868	1111.12 ± 0.54 kg/m3
m1 = 0.9979	1112.28 ± 0.54 kg/m3
m1 = 0.9999	1112.48 ± 0.54 kg/m3
m1 = 1.196	1133.04 ± 0.59 kg/m3
m1 = 1.2	1133.46 ± 0.59 kg/m3 and 1133.45 ± 0.59 kg/m3
